Laboratory results from patent US9169270B2, “1-phenyl-substituted heterocyclyl derivatives and their use as prostaglandin D2 receptor modulators” (Actelion Pharmaceuticals Ltd., priority 2012, dated 2015).

Biological target: hCRTH2 receptor (Homo sapiens (Human), UniProt Q9Y5Y4)
Assay: hCRTH2 receptor membranes radioligand (3H-PGD2) displacement assay
Conditions: hCRTH2 membrane fragments, Binding-Buffer with 0.1% BSA
Description: Biological Assays: Preparation of hCRTH2 Receptor Membranes and Radioligand Displacement Assay:
First, recombinant HEK293-hCRTH2 cells were detached from culture plates into 5 ml buffer A/plate (Buffer A: 5 mM Tris, 1 mM MgCl2-6H2O pH=7.4) using a rubber policeman. Cells were then transferred into centrifugation tubes and centrifuged for 5 min at 400 g. The cell pellet was resuspended in the same buffer and tubes were frozen at −80° C. Cells were thawed and membrane fragments were generated by homogenization using a polytron homogenizer (30 seconds). The membrane fragments were then centrifuged at 3000 g for 20 minutes and resuspended in buffer C (Buffer C: 75 mM Tris, 25 mM MgCl2, 250 mM Saccharose pH 7.4). Aliquots of membrane fragments were stored at −20° C.
Binding assay was performed in a final assay volume of 250 μl. First, 25 μl of test compound, previously diluted in Binding-Buffer (Binding-Buffer: 50 mM Tris-Base, 100 mM NaCl, 1 mM EDTA, 0.1% BSA (protease free), 0.01% NaN3, 10 mM MnCl2, pH 7.0) was placed into each well. […] Binding assay was started by addition of 100 μl CRTH2 membrane fragments, reaching a final concentration of 20 μg/well. For non-specific binding, PGD2 was added to the reaction mixture to […] final concentration. This assay mix was incubated for 90 minutes at room temperature and then filtered through a GF/C filter 96-well plate which was pre-soaked for 3 hours in 0.5% polyethyleneimine (PEI). The filter-wells were washed three times with ice cold Binding-Buffer. Then, 40 μl of Microscint-40 (Packard) was added to each well and the retained radioactivity quantified in a Topcount (Packard).

Sequence of hCRTH2 receptor (Q9Y5Y4 whole entry): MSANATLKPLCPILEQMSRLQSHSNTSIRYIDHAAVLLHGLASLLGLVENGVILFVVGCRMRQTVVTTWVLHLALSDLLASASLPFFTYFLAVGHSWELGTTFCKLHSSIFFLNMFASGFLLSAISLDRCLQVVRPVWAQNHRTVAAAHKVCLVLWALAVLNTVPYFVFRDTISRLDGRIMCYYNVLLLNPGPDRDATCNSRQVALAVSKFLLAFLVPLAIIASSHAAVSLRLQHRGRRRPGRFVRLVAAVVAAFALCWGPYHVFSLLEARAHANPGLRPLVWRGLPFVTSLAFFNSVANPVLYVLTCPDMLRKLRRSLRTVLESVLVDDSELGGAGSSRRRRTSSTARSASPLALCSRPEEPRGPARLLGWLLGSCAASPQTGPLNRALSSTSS

SMILES | IC50
O=C(O)COc1ccc(Cl)cc1C1c2scnc2CCN1C(=O)/C=C/c1ccccc1 (racemic) [Example 45, (±)-(4-Chloro-2-{5-[(E)-(3-phenyl-acryloyl)]-4,5,6,7-tetrahydro-thiazolo[5,4-c]pyridin-4-yl}-phenoxy)-acetic acid] | 59.6 nM
O=C(O)COc1ccc(Cl)cc1C1c2scnc2CCN1C(=O)CC1Cc2ccccc2C1 (racemic) [Example 46, (±)-{4-Chloro-2-[5-(2-indan-2-yl-acetyl)-4,5,6,7-tetrahydro-thiazolo[5,4-c]pyridin-4-yl]-phenoxy}-acetic acid] | 6.2 nM
CC1(C)CC1C(=O)N1CCc2ncsc2C1c1cc(Cl)ccc1OCC(=O)O (racemic) [Example 47, (±)-{4-Chloro-2-[(±)-5-(2,2-dimethyl-cyclopropanecarbonyl)-4,5,6,7-tetrahydro-thiazolo[5,4-c]pyridin-4-yl]-phenoxy}-acetic acid] | 37.1 nM
O=C(O)COc1ccc(Cl)cc1C1c2scnc2CCN1C(=O)CC1CCCCC1 (racemic) [Example 48, (±)-{4-Chloro-2-[5-(2-cyclohexyl-acetyl)-4,5,6,7-tetrahydro-thiazolo[5,4-c]pyridin-4-yl]-phenoxy}-acetic acid] | 73 nM
O=C(O)COc1ccc(Cl)cc1C1c2scnc2CCN1C(=O)Cc1ccc2ccccc2c1 (racemic) [Example 49, (±)-{4-Chloro-2-[5-(2-naphthalen-2-yl-acetyl)-4,5,6,7-tetrahydro-thiazolo[5,4-c]pyridin-4-yl]-phenoxy}-acetic acid] | 15.8 nM
O=C(O)COc1ccc(Cl)cc1C1c2scnc2CCN1C(=O)Cc1cccc2ccccc12 (racemic) [Example 50, (±)-{4-Chloro-2-[5-(2-naphthalen-1-yl-acetyl)-4,5,6,7-tetrahydro-thiazolo[5,4-c]pyridin-4-yl]-phenoxy}-acetic acid] | 12.6 nM
O=C(O)COc1ccc(Cl)cc1C1c2scnc2CCN1C(=O)CCCc1ccc(F)cc1 (racemic) [Example 51, (±)-(4-Chloro-2-{5-[4-(4-fluoro-phenyl)-butyryl]-4,5,6,7-tetrahydro-thiazolo[5,4-c]pyridin-4-yl}-phenoxy)-acetic acid] | 9.7 nM
O=C(O)COc1ccc(Cl)cc1C1c2scnc2CCN1C(=O)CCN1CCc2ccccc21 (racemic) [Example 52, (±)-{4-Chloro-2-[5-(3-2,3-dihydro-indol-1-yl-propionyl)-4,5,6,7-tetrahydro-thiazolo[5,4-c]pyridin-4-yl]-phenoxy}-acetic acid] | 17.7 nM
COc1ccc(/C=C/C(=O)N2CCc3ncsc3C2c2cc(Cl)ccc2OCC(=O)O)cc1 (racemic) [Example 54, (±)-(4-Chloro-2-{5-[(E)-3-(4-methoxy-phenyl)-acryloyl]-4,5,6,7-tetrahydro-thiazolo[5,4-c]pyridin-4-yl}-phenoxy)-acetic acid] | 41.2 nM
Cc1ccc(/C=C/C(=O)N2CCc3ncsc3C2c2cc(Cl)ccc2OCC(=O)O)cc1 (racemic) [Example 56, (±)-{4-Chloro-2-[5-((E)-3-p-tolyl-acryloyl)-4,5,6,7-tetrahydro-thiazolo[5,4-c]pyridin-4-yl]-phenoxy}-acetic acid] | 71.9 nM
O=C(O)COc1ccc(Cl)cc1C1c2scnc2CCN1C(=O)/C=C/c1ccc(F)cc1F (racemic) [Example 57, (±)-(4-Chloro-2-{5-[(E)-3-(2,4-difluoro-phenyl)-acryloyl]-4,5,6,7-tetrahydro-thiazolo[5,4-c]pyridin-4-yl}-phenoxy)-acetic acid] | 3.5 nM
CCC(C)COC(=O)N1CCc2ncsc2[C@H]1c1cc(Cl)ccc1OCC(=O)O (mixture of isomers) [Example 70, (R)-4-(2-Carboxymethoxy-5-chloro-phenyl)-6,7-dihydro-4H-thiazolo[5,4-c]pyridine-5-carboxylic acid (±)-2-methyl-butyl ester] | 2.8 nM
O=C(O)COc1ccc(Cl)cc1C1c2scnc2CCN1C(=O)OCCc1cccc(F)c1 (racemic) [Example 77, (±)-4-(2-Carboxymethoxy-5-chloro-phenyl)-6,7-dihydro-4H-thiazolo[5,4-c]pyridine-5-carboxylic acid 2-(3-fluoro-phenyl)-ethyl ester] | 2.3 nM
O=C(O)COc1ccc(Cl)cc1C1c2scnc2CCN1C(=O)OCc1ccccc1F (racemic) [Example 79, (±)-4-(2-Carboxymethoxy-5-chloro-phenyl)-6,7-dihydro-4H-thiazolo[5,4-c]pyridine-5-carboxylic acid 2-fluoro-benzyl ester] | 3 nM
O=C(O)COc1ccc(Cl)cc1C1c2scnc2CCN1C(=O)OCc1ccc(F)cc1 (racemic) [Example 80, (±)-4-(2-Carboxymethoxy-5-chloro-phenyl)-6,7-dihydro-4H-thiazolo[5,4-c]pyridine-5-carboxylic acid 4-fluoro-benzyl ester] | 1.9 nM
O=C(O)COc1ccc(Cl)cc1C1c2scnc2CCN1C(=O)OCc1cccc(Cl)c1Cl (racemic) [Example 81, (±)-4-(2-Carboxymethoxy-5-chloro-phenyl)-6,7-dihydro-4H-thiazolo[5,4-c]pyridine-5-carboxylic acid 2,3-dichloro-benzyl ester] | 1.2 nM
O=C(O)COc1ccc(Cl)cc1C1c2scnc2CCN1C(=O)OCc1cccc(F)c1F (racemic) [Example 82, (±)-4-(2-Carboxymethoxy-5-chloro-phenyl)-6,7-dihydro-4H-thiazolo[5,4-c]pyridine-5-carboxylic acid 2,3-difluoro-benzyl ester] | 8.5 nM
O=C(O)COc1ccc(Cl)cc1C1c2scnc2CCN1C(=O)OCc1ccccc1Cl (racemic) [Example 84, (±)-4-(2-Carboxymethoxy-5-chloro-phenyl)-6,7-dihydro-4H-thiazolo[5,4-c]pyridine-5-carboxylic acid 2-chloro-benzyl ester] | 3.5 nM
O=C(O)COc1ccc(Cl)cc1C1c2scnc2CCN1C(=O)OCc1ccc(Cl)cc1 (racemic) [Example 86, (±)-4-(2-Carboxymethoxy-5-chloro-phenyl)-6,7-dihydro-4H-thiazolo[5,4-c]pyridine-5-carboxylic acid 4-chloro-benzyl ester] | 1.7 nM
O=C(O)COc1ccc(Cl)cc1C1c2scnc2CCN1C(=O)OCCc1ccccc1 (racemic) [Example 88, (±)-4-(2-Carboxymethoxy-5-chloro-phenyl)-6,7-dihydro-4H-thiazolo[5,4-c]pyridine-5-carboxylic acid phenethyl ester] | 6.4 nM
O=C(O)COc1ccc(Cl)cc1C1c2scnc2CCN1C(=O)OCn1ncc2ccccc21 (racemic) [Example 90, (±)-4-(2-Carboxymethoxy-5-chloro-phenyl)-6,7-dihydro-4H-thiazolo[5,4-c]pyridine-5-carboxylic acid indazol-1-ylmethyl ester] | 1.6 nM
CCn1nc(C)cc1CCOC(=O)N1CCc2ncsc2C1c1cc(Cl)ccc1OCC(=O)O (racemic) [Example 91, (±)-4-(2-Carboxymethoxy-5-chloro-phenyl)-6,7-dihydro-4H-thiazolo[5,4-c]pyridine-5-carboxylic acid 2-(2-ethyl-5-methyl-2H-pyrazol-3-yl)-ethyl ester] | 3.7 nM
O=C(O)COc1ccc(Cl)cc1C1c2scnc2CCN1C(=O)OCc1cc(F)ccc1Cl (racemic) [Example 92, (±)-4-(2-Carboxymethoxy-5-chloro-phenyl)-6,7-dihydro-4H-thiazolo[5,4-c]pyridine-5-carboxylic acid 2-chloro-5-fluoro-benzyl ester] | 2.2 nM
O=C(O)COc1ccc(Cl)cc1C1c2scnc2CCN1C(=O)OCc1cc(F)ccc1F (racemic) [Example 93, (±)-4-(2-Carboxymethoxy-5-chloro-phenyl)-6,7-dihydro-4H-thiazolo[5,4-c]pyridine-5-carboxylic acid 2,5-difluoro-benzyl ester] | 1.3 nM
O=C(O)COc1ccc(Cl)cc1C1c2scnc2CCN1C(=O)OCc1ccc(Cl)cc1Cl (racemic) [Example 94, (±)-4-(2-Carboxymethoxy-5-chloro-phenyl)-6,7-dihydro-4H-thiazolo[5,4-c]pyridine-5-carboxylic acid 2,4-dichloro-benzyl ester] | 17.1 nM
O=C(O)COc1ccc(Cl)cc1C1c2scnc2CCN1C(=O)OCc1nc2ccccc2o1 (racemic) [Example 97, (±)-4-(2-Carboxymethoxy-5-chloro-phenyl)-6,7-dihydro-4H-thiazolo[5,4-c]pyridine-5-carboxylic acid benzooxazol-2-ylmethyl ester] | 5.1 nM
CC(C)COC(=O)N1CCc2ncsc2C1c1cc(Cl)ccc1OCC(=O)O (racemic) [Example 98, (±)-4-(2-Carboxymethoxy-5-chloro-phenyl)-6,7-dihydro-4H-thiazolo[5,4-c]pyridine-5-carboxylic acid isobutyl ester] | 17.8 nM
CCCCOC(=O)N1CCc2ncsc2C1c1cc(Cl)ccc1OCC(=O)O (racemic) [Example 99, (±)-4-(2-Carboxymethoxy-5-chloro-phenyl)-6,7-dihydro-4H-thiazolo[5,4-c]pyridine-5-carboxylic acid butyl ester] | 11.8 nM
